The results in this text go back to patent publication US20250042911A1, “NOVEL BENZOPYRAN DERIVATIVE AND USE THEREOF” (SPARK BIOPHARMA, INC, priority 2021, published 2025).

This assay has as its system human M2 macrophages. The assay is described as follows: Inhibition of human M2 macrophage activity, hCCL22 in culture supernatant by ELISA. The class given is cell-based. The following applies: for inhibition at 10 µM: Macrophage, hCCL22 inhibitory activity at 10 μM, 72 hours; for EC50: hCCL22 secretion, THP-1 derived M2-like macrophages, compound present during 72 hours of differentiation. The method, then:
To obtain human M2 macrophages, human monocytes (THP-1 monocyte, CD4 expression) were stabilized in a 96-well plate for 24 hours and then incubated in culture media containing 100 ng/mL phorbal 12-myristate-13-acetate (PMA; Sigma, P8139) for 24 hours to differentiate into M0 macrophages (macrophage-like phenotype). It was confirmed that differentiated M0 macrophages had reduced CD4 expression and expressed CD11b. M0 macrophages in the plate well were washed once with culture media and incubated in culture media containing 25 ng/mL hIL-4 (Peprotech, 200-04-50) and 25 ng/mL hIL-13 (Peprotech, 200-13-50) for 72 hours to differentiate into M2-like macrophages. Test compounds were diluted by concentration in M2 differentiation media and treated simultaneously during a differentiation period of 72 hours. The inhibitory effect of the test compounds on M2 macrophages was determined by measuring hCCL22 in the medium culture supernatant cultured for 72 hours using an ELISA assay (R&D system, DMD00). The results of the activity measurements are represented in Table 3 (EC50), Table 4 ([…] inhibitory activity at 5 μM) and Table 5 (hCCL22 inhibitory activity at 10 μM).

Where a name gives a salt, the structure may show the parent alone.

As for `CC(=O)c1ccc(-n2c(=O)n3n(c2=O)C2C(=CC3)C(C)(C)Oc3c2cc(Cl)c(N)c3Cl)cc1` (stereo not shown) [Example 31, 2-(4-acetylphenyl)-10-amino-9,11-dichloro-7,7-dimethyl-5,12b-dihydro-1H,7H-chromeno[4,3-c][1,2,4]triazolo[1,2-a]pyridazine-1,3(2H)-dione], the inhibition (in general, how much of the control response was suppressed) at 10 µM worked out at 97.2% and the response was half-maximal at 2 µM (EC50).
For `CNc1ccc2c(c1)OC(C)(C)C1=CCn3c(=O)n(-c4ccc(C(C)=O)cc4)c(=O)n3C12` (stereo not shown) [Example 32, 2-(4-acetylphenyl)-7,7-dimethyl-10-(methylamino)-5,12b-dihydro-1H,7H-chromeno[4,3-c][1,2,4]triazolo[1,2-a]pyridazine-1,3(2H)-dione], testing at 10 µM gave an inhibition of 84.4% and a half-maximal effect (EC50) was put at 6.1 µM.
The corresponding values for `CCN(CC)c1ccc2c(c1)OC(C)(C)C1=CCn3c(=O)n(-c4ccc(C(C)=O)cc4)c(=O)n3C12` (stereo not shown) [Example 33, 2-(4-acetylphenyl)-10-(diethylamino)-7,7-dimethyl-5,12b-dihydro-1H,7H-chromeno[4,3-c][1,2,4]triazolo[1,2-a]pyridazine-1,3(2H)-dione] are 96.5% and 5.8 µM.
On to `CC(=O)c1ccc(-n2c(=O)n3n(c2=O)C2C(=CC3)C(C)(C)Oc3cc(N4CCCC4)ccc32)cc1` (stereo not shown) [Example 34, 2-(4-acetylphenyl)-7,7-dimethyl-10-(pyrrolidin-1-yl)-5,12b-dihydro-1H,7H-chromeno[4,3-c][1,2,4]triazolo[1,2-a]pyridazine-1,3(2H)-dione], for which at 10 µM the inhibition was 73.7% and the EC50 (as a rule, the concentration that produces a half-maximal response) came out at 7.7 µM.
In the case of `CC1(C)Oc2cc(NC3COC3)ccc2C2C1=CCn1c(=O)n(-c3ccc(F)cc3)c(=O)n12` (stereo not shown) [Example 35, 2-(4-fluorophenyl)-7,7-dimethyl-10-(oxetan-3-ylamino)-5,12b-dihydro-1H,7H-chromeno[4,3-c][1,2,4]triazolo[1,2-a]pyridazine-1,3(2H)-dione], the inhibition at 10 µM was 96.7% and a half-maximal effect (EC50) was put at 4.8 µM.
`CNc1c(Cl)cc2c(c1Cl)OC(C)(C)C1=CCn3c(=O)n(-c4ccc(C(C)=O)cc4)c(=O)n3C12` (stereo not shown) [Example 36, 2-(4-acetylphenyl)-9,11-dichloro-7,7-dimethyl-10-(methylamino)-5,12b-dihydro-1H,7H-chromeno[4,3-c][1,2,4]triazolo[1,2-a]pyridazine-1,3(2H)-dione] gave an EC50 of 10.8 µM.
As for `CC(=O)c1ccc(-n2c(=O)n3n(c2=O)C2C(=CC3)C(C)(C)Oc3c2cc(Cl)c(NC(C)C)c3Cl)cc1` (stereo not shown) [Example 37, 2-(4-acetylphenyl)-9,11-dichloro-10-(isopropylamino)-7,7-dimethyl-5,12b-dihydro-1H,7H-chromeno[4,3-c][1,2,4]triazolo[1,2-a]pyridazine-1,3(2H)-dione], the response was half-maximal at 14.7 µM (EC50).
As for `CC(=O)c1ccc(-n2c(=O)n3n(c2=O)C2C(=CC3)C(C)(C)Oc3cc(-c4cc(C)nn4C)ccc32)cc1` (stereo not shown) [Example 38, 2-(4-acetylphenyl)-10-(1,3-dimethyl-1H-pyrazol-5-yl)-7,7-dimethyl-5,12b-dihydro-1H,7H-chromeno[4,3-c][1,2,4]triazolo[1,2-a]pyridazine-1,3(2H)-dione], the response was half-maximal at 31.6 µM (EC50).
Still for that read-out and setting: the value for `CC(=O)c1ccc(-n2c(=O)n3n(c2=O)C2C(=CC3)C(C)(C)Oc3cc(-c4nc(C)sc4C)ccc32)cc1` (stereo not shown) [Example 39, 2-(4-acetylphenyl)-10-(2,5-dimethylthiazol-4-yl)-7,7-dimethyl-5,12b-dihydro-1H,7H-chromeno[4,3-c][1,2,4]triazolo[1,2-a]pyridazine-1,3(2H)-dione] was 73.1 µM; that for `CCn1nc(C)c(-c2ccc3c(c2)OC(C)(C)C2=CCn4c(=O)n(-c5ccc(C(C)=O)cc5)c(=O)n4C23)c1C` (stereo not shown) [Example 40, 2-(4-acetylphenyl)-10-(1-ethyl-3,5-dimethyl-1H-pyrazol-4-yl)-7,7-dimethyl-5,12b-dihydro-1H,7H-chromeno[4,3-c][1,2,4]triazolo[1,2-a]pyridazine-1,3(2H)-dione] was 53.8 µM.
Molecule `CC(=O)c1ccc(-n2c(=O)n3n(c2=O)C2C(=CC3)C(C)(C)Oc3cc(-c4cccnc4)ccc32)cc1` (stereo not shown) [Example 42, 2-(4-acetylphenyl)-7,7-dimethyl-10-(pyridin-3-yl)-5,12b-dihydro-1H,7H-chromeno[4,3-c][1,2,4]triazolo[1,2-a]pyridazine-1,3(2H)-dione] gave an EC50 of 31.2 µM.
In turn, `CC(=O)c1ccc(-n2c(=O)n3n(c2=O)C2C(=CC3)C(C)(C)Oc3cc(-c4ccncc4)ccc32)cc1` (stereo not shown) [Example 43, 2-(4-acetylphenyl)-7,7-dimethyl-10-(pyridin-4-yl)-5,12b-dihydro-1H,7H-chromeno[4,3-c][1,2,4]triazolo[1,2-a]pyridazine-1,3(2H)-dione] had an EC50 of 19.2 µM.
Molecule `CC(=O)c1ccc(-n2c(=O)n3n(c2=O)C2C(=CC3)C(C)(C)Oc3cc(N(C)C(C)C)ccc32)cc1` (stereo not shown) [Example 45, 2-(4-acetylphenyl)-10-(isopropyl(methyl)amino)-7,7-dimethyl-5,12b-dihydro-1H,7H-chromeno[4,3-c][1,2,4]triazolo[1,2-a]pyridazine-1,3(2H)-dione] came in with an EC50 of 9.1 µM.
As to `CC(=O)c1ccc(-n2c(=O)n3n(c2=O)C2C(=CC3)C(C)(C)Oc3cc(N(C(C)C)C(C)C)ccc32)cc1` (stereo not shown) [Example 47, 2-(4-acetylphenyl)-10-(diisopropylamino)-7,7-dimethyl-5,12b-dihydro-1H,7H-chromeno[4,3-c][1,2,4]triazolo[1,2-a]pyridazine-1,3(2H)-dione], the EC50 came to 8.1 µM.
`CN1CCN(c2ccc3c(c2)OC(C)(C)C2=CCn4c(=O)n(-c5ccc(C(C)(C)C)cc5)c(=O)n4C23)CC1` (stereo not shown) [Example 48, 2-(4-(tert-butyl)phenyl)-7,7-dimethyl-10-(4-methylpiperazin-1-yl)-5,12b-dihydro-1H,7H-chromeno[4,3-c][1,2,4]triazolo[1,2-a]pyridazine-1,3(2H)-dione]: the response was half-maximal at 9.7 µM (EC50).
`CN1CCN(c2ccc3c(c2)OC(C)(C)C2=CCn4c(=O)n(-c5ccc(C(F)(F)F)cc5)c(=O)n4C23)CC1` (stereo not shown) [Example 49, 7,7-dimethyl-10-(4-methylpyrerazin-1-yl)-2-(4-(trifluoromethyl)phenyl)-5,12b-dihydro-1H,7H-chromeno[4,3-c][1,2,4]triazolo[1,2-a]pyridazine-1,3(2H)-dione] returned an EC50 of 12.1 µM.
As for `CN1CCN(c2ccc3c(c2)OC(C)(C)C2=CCn4c(=O)n(-c5ccc(F)cc5)c(=O)n4C23)CC1` (stereo not shown) [Example 50, 2-(4-fluorophenyl)-7,7-dimethyl-10-(4-methylpiperazin-1-yl)-5,12b-dihydro-1H,7H-chromeno[4,3-c][1,2,4]triazolo[1,2-a]pyridazine-1,3(2H)-dione], the EC50 was 25.6 µM.
On to `CC(=O)c1ccc(-n2c(=O)n3n(c2=O)C2C(=CC3)C(C)(C)Oc3cc(N4CCN(C)CC4)ccc32)cc1` (stereo not shown) [Example 51, 2-(4-acetylphenyl)-7,7-dimethyl-10-(4-methylpiperazin-1-yl)-5,12b-dihydro-1H,7H-chromeno[4,3-c][1,2,4]triazolo[1,2-a]pyridazine-1,3(2H)-dione], for which the EC50 turned out to be 33.5 µM.
On the same count and under the same terms, the value for `CC(=O)c1ccc(-n2c(=O)n3n(c2=O)C2C(=CC3)C(C)(C)Oc3cc(N4CCN(S(C)(=O)=O)CC4)ccc32)cc1` (stereo not shown) [Example 52, 2-(4-acetylphenyl)-7,7-dimethyl-10-(4-(methylsulfonyl)piperazin-1-yl)-5,12b-dihydro-1H,7H-chromeno[4,3-c][1,2,4]triazolo[1,2-a]pyridazine-1,3(2H)-dione] was 26.4 µM; that for `CC1(C)Oc2cc(O)ccc2C2C1=CCn1c(=O)n(-c3ccc(C(=O)N4CCOCC4)cc3)c(=O)n12` (stereo not shown) [Example 53, 10-hydroxy-7,7-dimethyl-2-(4-(morpholine-4-carbonyl)phenyl)-5,12b-dihydro-1H,7H-chromeno[4,3-c][1,2,4]triazolo[1,2-a]pyridazine-1,3(2H)-dione] was 4.5 µM.
Molecule `CC(C)(C)OC(=O)N1CCN(C(=O)c2ccc(-n3c(=O)n4n(c3=O)C3C(=CC4)C(C)(C)Oc4cc(O)ccc43)cc2)CC1` (stereo not shown) [Example 54, tert-butyl 4-(4-(10-hydroxy-7,7-dimethyl-1,3-dioxo-5,12b-dihydro-1H,7H-chromeno[4,3-c][1,2,4]triazolo[1,2-a]pyridazin-2(3H)-yl)benzoyl)piperazine-1-carboxylate] displayed an EC50 of 1.5 µM.
Same read-out and setting: the value for `CC(=O)c1ccc(-n2c(=O)n3n(c2=O)C2C(=CC3)C(C)(C)Oc3cc(OC(=O)C(C)(C)C)ccc32)cc1` (stereo not shown) [Example 58, 2-(4-acetylphenyl)-7,7-dimethyl-1,3-dioxo-2,3,5,12b-tetrahydro-1H,7H-chromeno[4,3-c][1,2,4]triazolo[1,2-a]pyridazin-10-yl pivalate] was 58.7 µM.
In turn, `CC(=O)c1ccc(-n2c(=O)n3n(c2=O)C2C(=CC3)C(C)(C)Oc3cc(OC(=O)N4CCNCC4)ccc32)cc1` (stereo not shown) [Example 67, 2-(4-acetylphenyl)-7,7-dimethyl-1,3-dioxo-2,3,5,12b-tetrahydro-1H,7H-chromeno[4,3-c][1,2,4]triazolo[1,2-a]pyridazin-10-yl piperazine-1-carboxylate hydrochloride] returned an EC50 of 17.5 µM.
